Where a name gives a salt, the structure may show the parent alone.
What was measured:
[1] = tested on: smooth muscle cells (SMC); assay: anti-proliferation assay (perlecan); format: cell-based; settings: using the same activity scale used in Table 3
In short: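 Compounds are added to smooth muscle cells in growth or serum-free medium. The change in proliferation is measured, e.g. by labelled-nucleotide incorporation into DNA, against untreated cells; IC50 values are given as activity bins.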

IL6 = assay: inhibition of TNF-induced IL6 production; format: cell-based; settings: for IC50: given as '50% at x μM', read-out: Inhibition of TNF-induced IL6 production: concentration giving 50% inhibition
VCAM1 = assay: inhibition of TNF-induced VCAM1; format: cell-based; settings: for IC50: in vitro
Description: (§1) The activity of the compounds of the present invention in inhibiting glycated protein- and AGE-induced inflammation can be determined using the assays described herein and in U.S. patent application Ser. No. 10/026,335, which is herein incorporated in its entirety. Such assays comprise measurement of the specific activity of biological components involved in a known cellular response. The assays provide a measurable response in which the activity of the compounds is determined. One assay comprises measurement of the effects of compounds on an inflammatory response by cells to the presence of a stimulating agent. Yet another assay comprises endothelial cells that are stimulated by the addition of a glycated protein, the stimulating agent. The endothelial cells respond by producing specific cytokines. The amount of cytokines produced are determined by measurement protocols known to those skilled in the art. The compounds of the present invention are then added to the assay and the production of cytokines is measured. From the comparison of the assay without the compound with the assay with the compound, the biological effect of the compound can be determined. The compound may have an inhibitory effect, a stimulatory effect, or no effect at all.
An aspect of the present invention comprises methods and compositions for the treatment of diseases, preconditions or pathologies associated with inflammatory cytokines and other inflammation related molecules including, but not limited to IL-6, VCAM-1, AGE-induced MCP-1, (monocyte chemoattractant protein 1), heme oxygenase, insulin-like growth factor, selectins, IP-10, MIG and I-TAC, NF-κB, IL-1β (interleukin 1β), IL-11 (interleukin 11), m-CSF (macrophage colony stimulating factor), fibrinogen, TNF-α (tumor necrosis factor α), adhesion molecules, selecting, VCAM-1 (Vascular Cell Adhesion Molecule-1), CRP (C-reactive protein), and PAI-1 (plasminogen activator inhibitor-1). Examples of such diseases include the pathogenesis of atherosclerosis and the development of diabetic vasculopathy in type II diabetes. For example, affecting the activity or level of TNFα is a key mediator of tissue damage following acute or chronic inflammatory reactions. The present invention contemplates providing compositions and methods that modulate the effects of cytokines and inflammatory molecules such as TNFα, IL-6, VCAM-1, IP-10, MIG, I-TAC and AGE-induced MCP-1, and treat the associated diseases, acute or chronic conditions, preconditions and pathologies.
(§2) Assays for determining the activity of compounds capable of modulating inflammation include those taught in U.S. patent application Ser. No. 10/026,335 and 09/969,013, which are both expressly incorporated by reference. In general, once the baseline response to the stimulating agent for the production of cytokines by the endothelial cells is established, thus comprising the control levels for the screening assay, the methods comprise addition of compounds of the present invention. The effect of the compound on the baseline response is determined by comparing the amount of cytokine produced in the presence of the stimulating agent and the amount of cytokine produced in the presence of the stimulating agent and the compound of the present invention. In a preferred method, compounds that have inhibitory effects on the inflammation of the cells in the presence of glycated albumin are then used as therapeutic agents. One or more compounds may be added to the screening assay. Combinations or mixtures of compounds can be added. Different amounts and formulations of the compounds are added to determine the effects on the screening assay. The screening assay may also be used to determine stimulatory compounds or compounds that have no effects in the assay.

MCP1 = assay: inhibition of TNF-induced MCP1; format: cell-based; settings: for IC50: in vitro
Description: as §1
The amount and type of cytokine produced can be determined using immunological methods, such as ELISA assays. The methods of the present invention are not limited by the type of assay used to measure the amount of cytokine produced, and any methods known to those skilled in the art and later developed can be used to measure the amount of cytokines produced in response to the stimulating agent and to the compound having unknown activity.
as §2

SMILES	IC50 (IL6) [µM]	IC50 (VCAM1) [µM]	IC50 (MCP1) [µM]	other results
COc1ccc(Oc2nc(Oc3ccc(OC)c(F)c3)nc(Oc3ccc(OC)c(F)c3)n2)cc1F [2,4,6-Tris-(3-fluoro-4-methoxy-phenoxy)-[1,3,5]triazine]				melting point: > 210 °C; activity in anti-proliferation assay (Perlecan), in words [1]: high activity
CCN1CCCC1CNc1nc(Nc2ccc(C)c(F)c2)nc(NC2CCCCCC2)n1 (centres unmarked) [Example 32, N-Cycloheptyl-N′-(1-ethyl-pyrrolidin-2-ylmethyl)-N″-(3-fluoro-4-methyl-phenyl)-[1,3,5]triazine-2,4,6-triamine]				melting point: 78 °C
COc1ccc(Nc2nc(NCC3CCCO3)nc(NC3CCCCCC3)n2)cc1Cl (centres unmarked) [Example 37, N-(3-Chloro-4-methoxy-phenyl)-N′-cycloheptyl-N″-(tetrahydro-furan-2-ylmethyl)-[1,3,5]triazine-2,4,6-triamine]				melting point: 77 °C
COc1ccc(Nc2nc(NCCNC(=O)OC(C)(C)C)nc(NC3CCCCCC3)n2)cc1Cl [Example 39, {2-[4-(3-Chloro-4-methoxy-phenylamino)-6-cycloheptylamino-[1,3,5]triazin-2-ylamino]-ethyl}-carbamic acid tert-butyl ester]				melting point: 94 °C
COc1ccc(Nc2nc(NCCN)nc(NC3CCCCCC3)n2)cc1Cl [Example 40, N-(2-Amino-ethyl)-N′-(3-chloro-4-methoxy-phenyl)-N″-cycloheptyl-[1,3,5]triazine-2,4,6-triamine]				melting point: 77 °C
COc1ccc(Nc2nc(NCCNC(=O)OC(C)(C)C)nc(NC3CCCCCC3)n2)cc1Cl [drawing 602, {2-[4-(3-Chloro-4-meth-oxy-phenylamino)-6-cyclo-heptylamino-[1,3,5]triazin-2-ylamino]-eth-yl}-carbamic acid tert-butyl ester]	15			
COc1ccc(Nc2nc(NCCN)nc(NC3CCCCCC3)n2)cc1Cl [drawing 603, N-(2-Amino-eth-yl)-N′-(3-chloro-4-methoxy-phe-nyl)-N″-cycloheptyl-[1,3,5]triazine-2,4,6-tri-amine]	2.7			
CCN1CCCC1CNc1nc(Nc2ccc(C)c(F)c2)nc(NC2CCCCCC2)n1 (centres unmarked) [drawing 604, N-Cycloheptyl-N′-(1-ethyl-pyrrolidin-2-yl-methyl)-N″-(3-fluoro-4-meth-yl-phenyl)-[1,3,5]tri-azine-2,4,6-triamine]	3.3			
Cc1ccc(Nc2nc(NC3CCCCCC3)nc(N(C)C3CCN(C)CC3)n2)cc1F [drawing 605, N-Cycloheptyl--N′-(3-fluoro-4-methyl-phenyl)-N″-meth-yl-N″-(1-methyl-piperidin-4-yl)-[1,3,5]tri-azine-2,4,6-triamine]	3.6			
CN1CCC(N(C)c2nc(Nc3cccc([N+](=O)[O-])c3)nc(NC3CCCCCC3)n2)CC1 [drawing 606, N-Cycloheptyl-N′-methyl-N′-(1-methyl-piper-idin-4-yl)-N″-(3-nitro-phenyl)-[1,3,5]tri-azine-2,4,6-triamine]	3.3			
CCN1CCCC1CNc1nc(Nc2ccc(OCc3ccccc3)c(Cl)c2)nc(NC2CCCCCC2)n1 (centres unmarked) [drawing 607, N-(4-Benzyloxy-3-chloro-phenyl)-N′-cyclo-heptyl-N″-(1-ethyl-pyrrolidin-2-yl-methyl)-[1,3,5]triazine-2,4,6-triamine]	1.1			
COc1ccc(Oc2nc(Oc3ccc(OC)c(F)c3)nc(Oc3ccc(OC)c(F)c3)n2)cc1F [drawing 608, 2,4,6-Tris-(3-fluoro-4-meth-oxy-phenoxy)-[1,3,5]triazine]				inhibition at 10 µM (IL6): 5%
COc1ccc(Nc2nc(NCCCCCNC(=O)CCCCC3SCC4NC(=O)NC43)nc(NC3CCCCCC3)n2)cc1Cl (centres unmarked) [drawing 609, 5-(2-Oxo-hexahydro-thieno[3,4-d]imi-dazol-4-yl)-pentanoicacid {5-[4-(3-chloro-4-methoxy-phenylamino)-6-cycloheptylamino-[1,3,5]tri-azin-2-ylamino]-pentyl}-amide]	5			
COc1ccc(Nc2nc(NC3CCCCCC3)nc(NC3CCN(C(=O)CCCCC4SCC5NC(=O)NC54)CC3)n2)cc1Cl (centres unmarked) [drawing 610]	19			
CN1CCC(N(C)c2nc(Nc3cccc(F)c3)nc(NC3CCCCCC3)n2)CC1 [drawing 612, N-Cyclo-heptyl-N′-(3-fluoro-phenyl)-N″-meth-yl-N″-(1-methyl-piperidin-4-yl)-[1,3,5]tri-azine-2,4,6-triamine]	3.2			
CCN1CCCC1CNc1nc(Nc2ccc(OC)c(F)c2)nc(N2CCN(CC(=O)N3CCCC3)CC2)n1 (centres unmarked) [drawing 613, 2-{4-[4-[(1-Ethyl-pyrrolidin-2-ylmethyl)-amino]-6-(3-fluoro-4-meth-oxy-phenylamino)-[1,3,5tri-azin-2-yl]-pipera-zin-1-yl}-1-pyrrolidin-1-yl-eth-anone dihydrogen chloride salt]				inhibition at 10 µM (IL6): 42%
COc1ccc(Nc2nc(NC3CCCCCC3)nc(OCC3CCCN3C)n2)cc1Cl (centres unmarked) [drawing 614]		2.5	3	
COc1ccc(Nc2nc(NC3CCCCCC3)nc(OC3CCN(C)CC3)n2)cc1Cl [drawing 615]		4.5	4.3	
COc1ccc(Nc2nc(NC3CCCCCC3)nc(OC3CCCN(C(C)=O)C3)n2)cc1Cl (centres unmarked) [drawing 617]		5.2	4.6	
COc1ccc(Nc2nc(NC3CCCCCC3)nc(Oc3ccc(C#CC(C)(C)O)cc3)n2)cc1Cl [drawing 620]		7	3.7	
COc1ccc(Nc2nc(NC3CCCCCC3)nc(Oc3ccccc3C#CC(C)(C)O)n2)cc1Cl [drawing 621]		7	6.5	
CCN1CCCC(Oc2nc(Nc3ccc(OC)c(Cl)c3)nc(NC3CCCCCC3)n2)C1 (centres unmarked) [drawing 622]		6	4.2	
COc1ccc(Nc2nc(NC3CCCCCC3)nc(Oc3ccc(C=O)cc3)n2)cc1Cl [drawing 623]		5.2	6	
COc1ccc(Nc2nc(NC(C)C)nc(Oc3ccc(C#CC(C)(C)O)cc3)n2)cc1Cl [drawing 627]		5.7	3	
COc1ccc(Nc2nc(NC3CCCCCC3)nc(Sc3c(Cl)cccc3Cl)n2)cc1Cl [drawing 631]				inhibition at 10 µM (VCAM1; @ 10 uM concentration, read-out: TNF-induced VCAM1, In-vitro % of inhibition): 6%; inhibition at 10 µM (MCP1; @ 10 uM concentration, read-out: TNF-induced MCP1, In-vitro % of inhibition): 11%
